# Publication PMC9332802, “Structure–Activity Relationship of New Chimeric Analogs of Mastoparan from the Wasp Venom Paravespula lewisii” (International Journal of Molecular Sciences, 2022)
# Where “and” joins values, the source holds several entries; their conditions need not be identical. Equal entries are not always repeated. Where two headings read alike, the source gives them in different places. Ends that are not written are not given here.
# Tests used:
# [1] = tested on: Staphylococcus aureus NCTC 4163; experiment: microbe, parasite or virus in culture; assay type: cell-based; details: for MIC S. aureus: peptide 0.125 to […], no visible growth; for MIC: read-out: MIC S. aureus
# Experimental: (§1) Antimicrobial activity of peptides was examined against three reference strains: Staphylococcus aureus NCTC 4163, Escherichia coli NCTC 8196 and Pseudomonas aeruginosae NCTC 6749 dedicated for the determination of antibacterial activity. The bacterial strains were stored in glycerol stock (Sigma-Aldrich, St. Louis, MO, USA) at −80 °C. Before testing, the strains were cultured aerobically in Tryptic Soy Agar (BD DIFCO, Franklin Lakes, NJ, USA) at 37 °C for 20 h. The susceptibility of microorganisms to the peptides was determined by the broth microdilution assay according to the procedures outlined by CLSI [49]. […] In order to prepare the bacterial suspension, an overnight culture of bacteria in Tryptic Soy Broth (BD DIFCO, Franklin Lakes, NJ, USA) was diluted in sterile saline to a final concentration of approximately 10^7 CFU/mL of bacteria. Aliquots (5 µL) of bacterial suspension were added to each peptide solution. The sterility control (containing the tested peptide in broth) and the growth control (containing the reference strain in broth without the tested peptide) were also set up. The plates were incubated at 37 °C under aerobic conditions. The results are expressed as the minimal inhibitory concentration (MIC) of the compounds in question. The MIC was defined as the lowest concentration at which no visible growth of bacteria (no turbidity) was observed. The assay was performed in triplicate.
# [2] = tested on: Escherichia coli NCTC 8196; experiment: microbe, parasite or virus in culture; assay type: cell-based; details: for MIC E. coli: peptide 0.125 to […], no visible growth
# Experimental: as §1
# [3] = tested on: Pseudomonas aeruginosae NCTC 6749; experiment: microbe, parasite or virus in culture; assay type: cell-based; details: for MIC P. aeruginosae: broth microdilution (CLSI), Mueller–Hinton broth, 37 °C, peptide 0.125 to […], no visible growth, triplicate
# Experimental: as §1
# [4] = Circular dichroism spectroscopy, relative α-helix fraction; assay type: physicochemical; details: CD, peptide 0.15 mg/mL, 25 °C, three scans averaged; for Relative α-helix fraction (fH), 0.1 M Tris + 50 mM SDS: 0.1 M Tris buffer pH 7.01 + 50 mM SDS, from mean residue ellipticity at 222 nm; for Relative α-helix fraction (fH), 50% TFE / Relative α-helix fraction (fH), water: from mean residue ellipticity at 222 nm (Rohl and Baldwin)
# Experimental: Circular dichroism spectroscopy was applied to evaluate the conformational changes of peptides induced by membrane-mimetic environments. The secondary structures of MP and some of its MP analogs (Table 4) were determined in water, 50% 2,2,2-trifluoroethanol (TFE) and 0.1 M Tris buffer with the addition of 50 mM SDS. The relative α-helix fraction (fH) values presented in Table 4, calculated from the values of mean residue ellipticity at 222 nm, reflect the ability of peptides to adopt helical structure in the tested environments.
# Circular dichroism (CD) spectra of peptides were recorded on a Jasco J-815 spectropolarimeter (Jasco Int. Co., Ltd., Tokyo, Japan). The CD spectra were acquired for peptides in a concentration of 0.15 mg/mL in water, 50% 2,2,2-trifluoroethanol (TFE) or 0.1 M tris(hydroxymethyl)aminomethane (Tris) buffer (pH 7.01) with the addition of 50 mM SDS (sodium dodecylsulphate) in 0.1 cm path length cuvettes. Measurements were taken at 25 °C in a spectral range of 193–260 nm with a bandwidth of 1 nm and response of 1 s. The spectra were averaged after three scans. Ellipticity was measured in mdeg units and converted to mean residue ellipticity (Θ). The relative helix content (fH) was calculated from the mean residue ellipticity values at 222 nm using the method proposed by Rohl and Baldwin [50] and described previously. Helical wheel projections (Figure 3) were made with HeliQuest https://heliquest.ipmc.cnrs.fr/ (accessed on 1 June 2022).
# [5] = broth microdilution (CLSI), Mueller–Hinton broth, 37 °C, triplicate
# [6] = same MIC expressed as molar concentration, broth microdilution (CLSI), Mueller–Hinton broth, 37 °C, triplicate
compound,measurement,setting,value
CC[C@H](C)[C@H](NC(=O)[C@H](CCCCN)NC(=O)[C@H](CCCCN)NC(=O)[C@H](C)NC(=O)[C@H](CC(C)C)NC(=O)[C@H](C)NC(=O)[C@H](C)NC(=O)[C@H](CC(C)C)NC(=O)[C@H](C)NC(=O)[C@H](CCCCN)NC(=O)[C@H](CC(C)C)NC(=O)[C@H](CC(N)=O)NC(=O)[C@@H](NC(=O)[C@H](CCCCNC(=O)Cn1cnc2ccccc21)NC(=O)CNC(=O)[C@H](CC(C)C)NC(=O)[C@H](CC(C)C)NC(=O)[C@H](Cc1ccc(O)cc1)NC(=O)CNC(=O)[C@H](C)N)[C@@H](C)CC)C(=O)N[C@@H](CC(C)C)C(N)=O [[Lys^7 (BnzAc)] TP10],MIC S. aureus,[1]; [5],256 µg/mL
same,MIC E. coli,[2]; [5],>256 µg/mL
same,MIC P. aeruginosae,[3],>256 µg/mL
"CC[C@H](C)[C@H](NC(=O)[C@H](CCCCN)NC(=O)[C@H](CCCCN)NC(=O)[C@H](C)NC(=O)[C@H](CC(C)C)NC(=O)[C@H](C)NC(=O)[C@H](C)NC(=O)[C@H](CC(C)C)NC(=O)[C@H](C)NC(=O)[C@H](CCCCN)NC(=O)[C@H](CC(C)C)NC(=O)[C@H](CC(N)=O)NC(=O)[C@@H](NC(=O)[C@H](CCCCN)NC(=O)CNC(=O)[C@H](CC(C)C)NC(=O)[C@H](CC(C)C)NC(=O)[C@H](Cc1ccc(O)cc1)NC(=O)CNC(=O)[C@H](C)NC(=O)[C@H](CO)NC(=O)[C@H](CC(N)=O)NC(=O)[C@H](CC(C)C)NC(=O)[C@@H](NC(=O)[C@H](Cc1c[nH]c2ccccc12)NC(=O)CN)[C@@H](C)O)[C@@H](C)CC)C(=O)N[C@@H](CC(C)C)C(N)=O [TP, transportan, reference compound]",MIC P. aeruginosae,[3],>256 µg/mL
"CNC(C)C1CCC(N)C(OC2C(N)CC(N)C(OC3OCC(C)(O)C(NC)C3O)C2O)O1 (stereo not drawn) [Gentamicin, gentamicin, reference compound]",MIC,"[1]; Staphylococcus aureus, NCTC4163",0.5 µg/mL
same,MIC,"[1]; Staphylococcus aureus, NCTC4163, same MIC expressed as molar concentration, broth microdilution (CLSI), Mueller–Hinton broth, 37 °C, triplicate",1.1 µM
same,MIC,"[2]; Escherichia coli, NCTC8196",1 µg/mL
same,MIC,"[2]; Escherichia coli, NCTC8196, same MIC expressed as molar concentration, broth microdilution (CLSI), Mueller–Hinton broth, 37 °C, triplicate",2.1 µM
same,MIC,"[3]; Pseudomonas, NCTC6749, read-out: MIC P. aeruginosae",0.25 µg/mL
CC[C@H](C)[C@H](NC(=O)[C@H](CCCCN)NC(=O)[C@H](CCCCN)NC(=O)[C@H](C)NC(=O)[C@H](CC(C)C)NC(=O)[C@H](C)NC(=O)[C@H](C)NC(=O)[C@H](CC(C)C)NC(=O)[C@H](C)NC(=O)[C@H](CCCCN)NC(=O)[C@H](CC(C)C)NC(=O)[C@H](CC(N)=O)NC(=O)[C@@H](NC(=O)[C@H](CCCCNC(=O)Cn1c(-c2ccccn2)nc2ccccc21)NC(=O)CNC(=O)[C@H](CC(C)C)NC(=O)[C@H](CC(C)C)NC(=O)[C@H](Cc1ccc(O)cc1)NC(=O)CNC(=O)[C@H](C)N)[C@@H](C)CC)C(=O)N[C@@H](CC(C)C)C(N)=O [[Lys^7 (PBnzAc)] TP10],"Relative α-helix fraction (fH), 0.1 M Tris + 50 mM SDS",[4],0.32
same,"Relative α-helix fraction (fH), 50% TFE",[4],0.51
same,"Relative α-helix fraction (fH), water",[4],0.14–0.19 and 0.15
same,MIC S. aureus,[1]; [5],>256 µg/mL
same,MIC E. coli,[2]; [5],>256 µg/mL
same,MIC P. aeruginosae,[3],>256 µg/mL
KALAALAKKILYSPWTNF-NH2 [MP (4–14)-RIP],MIC P. aeruginosae,[3],>256 µg/mL
CCCCCCCCCc1nc2ccccc2n1CC(=O)NCCCC[C@H](NC(=O)CNC(=O)[C@H](CC(C)C)NC(=O)[C@H](CC(C)C)NC(=O)[C@H](Cc1ccc(O)cc1)NC(=O)CNC(=O)[C@H](C)N)C(=O)N[C@H](C(=O)N[C@@H](CC(N)=O)C(=O)N[C@@H](CC(C)C)C(=O)N[C@@H](CCCCN)C(=O)N[C@@H](C)C(=O)N[C@@H](CC(C)C)C(=O)N[C@@H](C)C(=O)N[C@@H](C)C(=O)N[C@@H](CC(C)C)C(=O)N[C@@H](C)C(=O)N[C@@H](CCCCN)C(=O)N[C@@H](CCCCN)C(=O)N[C@H](C(=O)N[C@@H](CC(C)C)C(N)=O)[C@@H](C)CC)[C@@H](C)CC [[Lys^7 (NBnzAc)] TP10],MIC S. aureus,[1]; [5],>256 µg/mL
same,MIC E. coli,[2]; [5],>256 µg/mL
same,MIC P. aeruginosae,[3],>256 µg/mL
CC[C@H](C)[C@H](NC(=O)[C@H](CCCCN)NC(=O)[C@H](CCCCN)NC(=O)[C@H](C)NC(=O)[C@H](CC(C)C)NC(=O)[C@H](C)NC(=O)[C@H](C)NC(=O)[C@H](CC(C)C)NC(=O)[C@H](C)NC(=O)[C@H](CCCCN)NC(=O)[C@H](CC(C)C)NC(=O)[C@H](CC(N)=O)NC(=O)[C@@H](NC(=O)[C@H](CCCCNC(=O)Cn1c(-c2ccccc2Cl)nc2ccccc21)NC(=O)CNC(=O)[C@H](CC(C)C)NC(=O)[C@H](CC(C)C)NC(=O)[C@H](Cc1ccc(O)cc1)NC(=O)CNC(=O)[C@H](C)N)[C@@H](C)CC)C(=O)N[C@@H](CC(C)C)C(N)=O [[Lys^7 (ClBnzAc)] TP10],MIC S. aureus,[1]; [5],>256 µg/mL
same,MIC E. coli,[2]; [5],>256 µg/mL
same,MIC P. aeruginosae,[3],>256 µg/mL
"KALAALAKKILYKPITNF-NH2 [MP (4–14)-[Lys^2, Ile^4] RIP]",MIC P. aeruginosae,[3],>256 µg/mL
"YKPITNF-NH2 [[Lys^2, Ile^4] RIP, reference compound]",MIC P. aeruginosae,[3],>256 µg/mL
KALAALAKKIL-NH2 [MP (4–14)],MIC P. aeruginosae,[3],>256 µg/mL
"INLKALAALAKKILYKPITNF-NH2 [MP-[Lys^2, Ile^4] RIP]",MIC P. aeruginosae,[3],>256 µg/mL
"YKPITNFINLKALAALAKKIL-NH2 [[Lys^2, Ile^4] RIP-MP]",MIC P. aeruginosae,[3],>256 µg/mL
INLKALAALAKKILLIKKALAALAKLNI-NH2 [MP-retroMP],"Relative α-helix fraction (fH), 0.1 M Tris + 50 mM SDS",[4],0.17
same,"Relative α-helix fraction (fH), 50% TFE",[4],0.23–0.24 and 0.24
same,"Relative α-helix fraction (fH), water",[4],0.04
same,MIC S. aureus,[1]; [5],>256 µg/mL
same,MIC E. coli,[2]; [5],>256 µg/mL
same,MIC P. aeruginosae,[3],>256 µg/mL
"GWTLNSAGYLLGPINLKALAALAKKIL-NH2 [Galp, galparan, reference compound]",MIC P. aeruginosae,[3],>256 µg/mL
"AGYLLGINLKALAALAKKILYKPITNF-NH2 [[desLys^7] TP10-[Lys^2, Ile^4] RIP]",MIC P. aeruginosae,[3],>256 µg/mL
"CC[C@H](C)[C@H](NC(=O)[C@H](CCCCN)NC(=O)[C@H](CCCCN)NC(=O)[C@H](C)NC(=O)[C@H](CC(C)C)NC(=O)[C@H](C)NC(=O)[C@H](C)NC(=O)[C@H](CC(C)C)NC(=O)[C@H](C)NC(=O)[C@H](CCCCN)NC(=O)[C@H](CC(C)C)NC(=O)[C@H](CC(N)=O)NC(=O)[C@@H](NC(=O)[C@H](CCCCN)NC(=O)CNC(=O)[C@H](CC(C)C)NC(=O)[C@H](CC(C)C)NC(=O)[C@H](Cc1ccc(O)cc1)NC(=O)CNC(=O)[C@H](C)N)[C@@H](C)CC)C(=O)N[C@@H](CC(C)C)C(N)=O [TP10, transportan 10, reference compound]",MIC P. aeruginosae,[3],256 µg/mL
"CC[C@H](C)[C@H](N)C(=O)N[C@@H](CC(N)=O)C(=O)N[C@@H](CC(C)C)C(=O)N[C@@H](CCCCN)C(=O)N[C@@H](C)C(=O)N[C@@H](CC(C)C)C(=O)N[C@@H](C)C(=O)N[C@@H](C)C(=O)N[C@@H](CC(C)C)C(=O)N[C@@H](C)C(=O)N[C@@H](CCCCN)C(=O)N[C@@H](CCCCN)C(=O)N[C@H](C(=O)N[C@@H](CC(C)C)C(N)=O)[C@@H](C)CC [MP, mastoparan]",MIC,[1]; [6],5.4 µM
same,MIC,[2]; [6],21.6 µM
same,MIC P. aeruginosae,[3],256 µg/mL
